Assay results as given in the supplement of paper PMC10307832.

Tests used:
Experiment in all cases: relative viability (nuclei count vs DMSO), 5 days (fraction); higher = more cells survive
[1] = compound: COC1=CC(c2cc3ccccc3[nH]2)=N/C1=C\c1[nH]c(C)cc1C [Obatoclax] + COc1cc2c(Oc3ccc(NC(=O)C4(C(=O)Nc5ccc(F)cc5)CC4)cc3F)ccnc2cc1OCCCN1CCOCC1 [Foretinib] (partner 0.25 µM)
In short: (§1)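 Relative viability is defined as nuclei in treated wells over nuclei in vehicle wells. Duplicate plates were run and medians reported. Lung cancer cell lines in 1536-well plates were dosed by pin tool one day after seeding, with one drug or with a fixed anchor-drug dose plus five library-drug doses (not always all listed) in √10 steps, and nuclei were counted after 5 days.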

[2] = compound: COC1=CC(c2cc3ccccc3[nH]2)=N/C1=C\c1[nH]c(C)cc1C [Obatoclax] + CS(=O)(=O)CCNCc1ccc(-c2ccc3ncnc(Nc4ccc(OCc5cccc(F)c5)c(Cl)c4)c3c2)o1 [Lapatinib] (partner 2 µM)
In short: as §1

[3] = compound: COC1=CC(c2cc3ccccc3[nH]2)=N/C1=C\c1[nH]c(C)cc1C [Obatoclax] + NC(=O)Nc1cc(-c2cccc(F)c2)sc1C(=O)N[C@H]1CCCNC1 [AZD7762] (partner 0.2 µM)
In short: as §1

[4] = compound: COC1=CC(c2cc3ccccc3[nH]2)=N/C1=C\c1[nH]c(C)cc1C [Obatoclax] + O=C(CCCCCCC(=O)Nc1ccccc1)NO [Vorinostat] (partner 1 µM)
In short: as §1

Cell Line: NCI-H322M
- relative viability ([1]; first compound 0.01 µM): 0.997
- relative viability ([1]; first compound 0.03162 µM): 1.02
- relative viability ([1]; first compound 0.3162 µM): 0.853
- relative viability ([1]; first compound 1 µM): 0.696
- relative viability ([2]; first compound 0.01 µM): 0.59
- relative viability ([2]; first compound 0.03162 µM): 0.505
- relative viability ([2]; first compound 0.1 µM): 0.763
- relative viability ([2]; first compound 0.3162 µM): 0.608
- relative viability ([2]; first compound 1 µM): 0.546
- relative viability ([3]; first compound 0.01 µM): 0.538
- relative viability ([3]; first compound 0.03162 µM): 0.556
- relative viability ([3]; first compound 0.1 µM): 0.549
- relative viability ([3]; first compound 0.3162 µM): 0.399
- relative viability ([3]; first compound 1 µM): 0.4
- relative viability ([4]; first compound 0.01 µM): 0.845
- relative viability ([4]; first compound 0.03162 µM): 0.799
- relative viability ([4]; first compound 0.1 µM): 1.2
- relative viability ([4]; first compound 0.3162 µM): 0.966
- relative viability ([4]; first compound 1 µM): 0.945

Cell Line: NCI-H358
- relative viability ([1]; first compound 0.01 µM): 0.664
- relative viability ([1]; first compound 0.03162 µM): 0.847
- relative viability ([1]; first compound 0.1 µM): 0.668
- relative viability ([1]; first compound 0.3162 µM): 0.415
- relative viability ([1]; first compound 1 µM): 0.311
- relative viability ([2]; first compound 0.01 µM): 0.482
- relative viability ([2]; first compound 0.03162 µM): 0.33
- relative viability ([2]; first compound 0.1 µM): 0.598
- relative viability ([2]; first compound 0.3162 µM): 0.336
- relative viability ([2]; first compound 1 µM): 0.208
- relative viability ([3]; first compound 0.01 µM): 0.519
- relative viability ([3]; first compound 0.03162 µM): 0.438
- relative viability ([3]; first compound 0.1 µM): 0.543
- relative viability ([3]; first compound 0.3162 µM): 0.307
- relative viability ([3]; first compound 1 µM): 0.224
- relative viability ([4]; first compound 0.01 µM): 0.661
- relative viability ([4]; first compound 0.03162 µM): 0.73
- relative viability ([4]; first compound 0.1 µM): 0.595
- relative viability ([4]; first compound 0.3162 µM): 0.183
- relative viability ([4]; first compound 1 µM): 0.141

Cell Line: NCI-H460
- relative viability ([1]; first compound 0.01 µM): 0.993
- relative viability ([1]; first compound 0.03162 µM): 1.01
- relative viability ([1]; first compound 0.1 µM): 0.947
- relative viability ([1]; first compound 0.3162 µM): 0.456
- relative viability ([1]; first compound 1 µM): 0.157
- relative viability ([2]; first compound 0.01 µM): 1
- relative viability ([2]; first compound 0.03162 µM): 1.06
- relative viability ([2]; first compound 0.1 µM): 0.806
- relative viability ([2]; first compound 0.3162 µM): 0.0507
- relative viability ([2]; first compound 1 µM): 0.0208
- relative viability ([3]; first compound 0.01 µM): 0.651
- relative viability ([3]; first compound 0.03162 µM): 0.537
- relative viability ([3]; first compound 0.3162 µM): 0.617
- relative viability ([3]; first compound 1 µM): 0.11
- relative viability ([4]; first compound 0.01 µM): 0.706
- relative viability ([4]; first compound 0.03162 µM): 0.717
- relative viability ([4]; first compound 0.1 µM): 0.692
- relative viability ([4]; first compound 0.3162 µM): 0.103
- relative viability ([4]; first compound 1 µM): 0.0463

Cell Line: NCI-H596
- relative viability ([1]; first compound 0.01 µM): 0.758
- relative viability ([1]; first compound 0.03162 µM): 0.798
- relative viability ([1]; first compound 0.1 µM): 0.823
- relative viability ([1]; first compound 0.3162 µM): 0.535
- relative viability ([1]; first compound 1 µM): 0.492
- relative viability ([2]; first compound 0.01 µM): 0.941
- relative viability ([2]; first compound 0.03162 µM): 0.951
- relative viability ([2]; first compound 0.1 µM): 0.827
- relative viability ([2]; first compound 0.3162 µM): 0.643
- relative viability ([2]; first compound 1 µM): 0.503
- relative viability ([3]; first compound 0.01 µM): 1.06
- relative viability ([3]; first compound 0.03162 µM): 1.1
- relative viability ([3]; first compound 0.1 µM): 0.773
- relative viability ([3]; first compound 0.3162 µM): 0.443
- relative viability ([3]; first compound 1 µM): 0.498
- relative viability ([4]; first compound 0.01 µM): 0.555
- relative viability ([4]; first compound 0.03162 µM): 0.467
- relative viability ([4]; first compound 0.1 µM): 0.543
- relative viability ([4]; first compound 0.3162 µM): 0.585
- relative viability ([4]; first compound 1 µM): 0.296

Cell Line: NCI-H647
- relative viability ([1]; first compound 0.01 µM): 1.14
- relative viability ([1]; first compound 0.03162 µM): 1.04
- relative viability ([1]; first compound 0.1 µM): 1.12
- relative viability ([1]; first compound 0.3162 µM): 0.935
- relative viability ([1]; first compound 1 µM): 0.476
- relative viability ([2]; first compound 0.01 µM): 1.02
- relative viability ([2]; first compound 0.03162 µM): 0.982
- relative viability ([2]; first compound 0.1 µM): 0.48
- relative viability ([2]; first compound 0.3162 µM): 0.189
- relative viability ([2]; first compound 1 µM): 0.144
- relative viability ([3]; first compound 0.01 µM): 0.443
- relative viability ([3]; first compound 0.03162 µM): 0.606
- relative viability ([3]; first compound 0.1 µM): 0.207
- relative viability ([3]; first compound 0.3162 µM): 0.253
- relative viability ([3]; first compound 1 µM): 0.114
- relative viability ([4]; first compound 0.01 µM): 0.667
- relative viability ([4]; first compound 0.03162 µM): 0.523
- relative viability ([4]; first compound 0.1 µM): 0.652
- relative viability ([4]; first compound 0.3162 µM): 0.304
- relative viability ([4]; first compound 1 µM): 0.161

Cell Line: NCI-H727
- relative viability ([1]; first compound 0.01 µM): 1.04
- relative viability ([1]; first compound 0.03162 µM): 0.628
- relative viability ([1]; first compound 0.1 µM): 1.07
- relative viability ([1]; first compound 0.3162 µM): 0.699
- relative viability ([1]; first compound 1 µM): 1.08
- relative viability ([2]; first compound 0.01 µM): 0.949
- relative viability ([2]; first compound 0.03162 µM): 0.792
- relative viability ([2]; first compound 0.1 µM): 0.798
- relative viability ([2]; first compound 0.3162 µM): 0.715
- relative viability ([2]; first compound 1 µM): 0.457
- relative viability ([3]; first compound 0.01 µM): 0.747
- relative viability ([3]; first compound 0.03162 µM): 0.552
- relative viability ([3]; first compound 0.1 µM): 0.827
- relative viability ([3]; first compound 0.3162 µM): 0.573
- relative viability ([3]; first compound 1 µM): 0.573
- relative viability ([4]; first compound 0.01 µM): 1.18
- relative viability ([4]; first compound 0.03162 µM): 1.14
- relative viability ([4]; first compound 0.1 µM): 1.29
- relative viability ([4]; first compound 0.3162 µM): 1.05
- relative viability ([4]; first compound 1 µM): 1.3

Cell Line: NCI-H838
- relative viability ([1]; first compound 0.01 µM): 1.03
- relative viability ([1]; first compound 0.03162 µM): 1.11
- relative viability ([1]; first compound 0.1 µM): 0.996
- relative viability ([1]; first compound 0.3162 µM): 1.1
- relative viability ([1]; first compound 1 µM): 0.858
- relative viability ([2]; first compound 0.01 µM): 1.07
- relative viability ([2]; first compound 0.03162 µM): 1.17
- relative viability ([2]; first compound 0.1 µM): 0.465
- relative viability ([2]; first compound 0.3162 µM): 0.62
- relative viability ([2]; first compound 1 µM): 0.377
- relative viability ([3]; first compound 0.01 µM): 0.873
- relative viability ([3]; first compound 0.03162 µM): 0.933
- relative viability ([3]; first compound 0.1 µM): 0.776
- relative viability ([3]; first compound 0.3162 µM): 0.889
- relative viability ([3]; first compound 1 µM): 0.656
- relative viability ([4]; first compound 0.01 µM): 0.687
- relative viability ([4]; first compound 0.03162 µM): 0.7
- relative viability ([4]; first compound 0.1 µM): 0.736
- relative viability ([4]; first compound 0.3162 µM): 0.678
- relative viability ([4]; first compound 1 µM): 0.36

Cell Line: NCI-H1355
- relative viability ([1]; first compound 0.01 µM): 1.04
- relative viability ([1]; first compound 0.03162 µM): 0.936
- relative viability ([1]; first compound 0.1 µM): 0.986
- relative viability ([1]; first compound 0.3162 µM): 0.94
- relative viability ([1]; first compound 1 µM): 0.529
- relative viability ([2]; first compound 0.01 µM): 1.06
- relative viability ([2]; first compound 0.03162 µM): 0.886
- relative viability ([2]; first compound 0.1 µM): 0.838
- relative viability ([2]; first compound 0.3162 µM): 0.862
- relative viability ([2]; first compound 1 µM): 0.921
- relative viability ([3]; first compound 0.01 µM): 0.698
- relative viability ([3]; first compound 0.03162 µM): 0.709
- relative viability ([3]; first compound 0.1 µM): 0.613
- relative viability ([3]; first compound 0.3162 µM): 0.735
- relative viability ([3]; first compound 1 µM): 0.647
- relative viability ([4]; first compound 0.01 µM): 0.623
- relative viability ([4]; first compound 0.03162 µM): 0.625
- relative viability ([4]; first compound 0.1 µM): 0.627
- relative viability ([4]; first compound 0.3162 µM): 0.601
- relative viability ([4]; first compound 1 µM): 0.623
